US6682892B2, “Method for treating herpes viruses” (priority 2000, dated 2004)

Experiments:
Type in all cases: cell-based
HSV-1 KOS = experiment: Plaque reduction assay, HSV-1 KOS; conditions: Table 1, plaque reduction, Vero cells; read-out: IC50 (uM), HSV-1 KOS
Protocol: Antiviral activity of compounds against herpesviruses such as HSV-1, HSV-2, or HCMV can be measured using plaque reduction assays. 0.1 ml of media containing approximately 50 PFU of virus is added to each well of a 24-well cell culture dish containing a confluent monolayer of cells (Vero cells for HSV-1 and HSV-2, HFF cells for HCMV). Compounds are dissolved in 100% DMSO and diluted in 100% DMSO as 200× stocks of the desired final drug concentration. Typically 5-6 two-fold dilutions are prepared for each compound. Dilutions of compounds are then added to media containing 0.8% CMC resulting in a final 1× drug concentration. After the virus-infected cells have incubated for 1 h at 37° C., the virus innoculum is removed and 1 ml of media containing 0.8% CMC and the various concentrations of compound is added to each well of the dish. The dish is incubated at 37° C. for approximately 2-3 days (HSV-1 and HSV-2) or 6-9 days (HCMV) to allow sufficient growth of virus to form plaques in the cell monolayer. Plaques can be observed and counted microscopically or by staining the cells with 0.1% crystal violet in 20% ethanol. […] Antiviral activity of a compound is expressed as the concentration of compound predicted to reduce the number of plaques in a well by 50% (IC50). The IC50 values are calculated by plotting the per cent inhibition vs. concentration of compound using EXCEL software for linear regression.
A panel of viruses consisting of four strains of HSV-1 (KOS, F, DJL, Patton) and three strains of HSV-2 (MS, 35D, 186) are tested in a plaque reduction assay against four different 4-oxo-DHQ compounds (#1, 2, 4, 5 as shown in FIG. 1), and one 4-oxo-DHTP compound (#3 as shown in FIG. 1) and against Acyclovir. The six drugs inhibited replication of the seven virus strains with IC50 values ranging from 2-10 μM (Table 1). In order to select for 4-oxo-DHQ resistant mutants, HSV-1 strains KOS, F, and DJL along with HSV-2 strains 186 and MS are serially passaged in the presence of 20 uM compound 1. Following the seventh passage, 4-oxo-DHQ resistant virus from each strain are plaque purified three times and high-titer stocks are made.

[1] = test system: 4-oxo-DHQ resistant HSV-1, HSV-2 and HCMV mutants; experiment: Plaque reduction assay, 4-oxo-DHQ resistant mutants compared with parent virus; conditions: HSV-1 and HSV-2 mutants
Protocol: (§1) Antiviral activity of compounds against herpesviruses such as HSV-1, HSV-2, or HCMV can be measured using plaque reduction assays. 0.1 ml of media containing approximately 50 PFU of virus is added to each well of a 24-well cell culture dish containing a confluent monolayer of cells (Vero cells for HSV-1 and HSV-2, HFF cells for HCMV). Compounds are dissolved in 100% DMSO and diluted in 100% DMSO as 200× stocks of the desired final drug concentration. Typically 5-6 two-fold dilutions are prepared for each compound. Dilutions of compounds are then added to media containing 0.8% CMC resulting in a final 1× drug concentration. After the virus-infected cells have incubated for 1 h at 37° C., the virus innoculum is removed and 1 ml of media containing 0.8% CMC and the various concentrations of compound is added to each well of the dish. The dish is incubated at 37° C. for approximately 2-3 days (HSV-1 and HSV-2) or 6-9 days (HCMV) to allow sufficient growth of virus to form plaques in the cell monolayer. Plaques can be observed and counted microscopically or by staining the cells with 0.1% crystal violet in 20% ethanol. […] The IC50 values are calculated by plotting the per cent inhibition vs. concentration of compound using EXCEL software for linear regression. […]

HSV-1 F-M1 (V823A) = experiment: Plaque reduction assay, 4-oxo-DHQ resistant HSV-1 F-M1; conditions: Table 2, mutant V823A
Protocol: as §1

Cn1cc(C(=O)NCc2ccc(Cl)cc2)c(=O)c2cc(/C=C\CO)cc(F)c21 [Compound 1]
IC50 (HSV-1 KOS): 2 µM
increase in IC50, HSV mutants selected with compound 1 [1]: > 10 fold
IC50 (HSV-1 F-M1 (V823A)): > 20 µM
